# In patent publication US20020106347A1, “Cytokines and their use in treatment and/or prophylaxis of breast cancer” (priority 1995, published 2002):
# “Also recorded” adds a separate entry of the source.
# Legend:
# Format in all cases: cell-based, human
# MCF-7 cells [1] = experiment: Cell cycle analysis by flow cytometry (DNA content); conditions: MCF-7, serum-free medium
# Procedure: FIG. 9 is a graphical representation showing the effect of OSM on cell cycle. MCF-7 cells treated with OSM while growing in serum-free medium were harvested by treatment with trypsin and stained for DNA content analysis by flow cytometry. Cell cycle distributions were calculated by computer fitting of the resultant histograms. […] FIG. 10(b) represents data from 2 experiments (performed in triplicate) where the number of cells in S phase are represented as a percentage of the corresponding untreated control value.
# Cell cycle distributions were calculated by computer fitting of the resultant histograms. Results represent the combined data from 3 experiments (performed in triplicate) where the number of cells in S phase are represented as a percentage of the corresponding untreated control value.
# Cell cycle analysis was performed in serum-free medium (Sigma). Analysis was performed 2-4 days after cells were washed and re-cultured in serum-free medium. Growth factors were added to the medium as indicated. At the times shown thereafter, cells were harvested with 0.05% (w/v) trpsin-0.02% (w/v) EDTA. The cells were resuspended in serum-free tissue culture medium and after cell counting using a hemacytometer, stained for later DNA analysis by the addition of 0.25% prothidium iodide in the presence of 0.2% (v/v) Triton X-100. DNA histograms were obtained by using a FACScan flow cytometer (Becton Dickinson Immunocytochemistry Systems) and the cell cycle phase distribution was estimated by using the manufacturer's DNA analysis software (Cellfit). Each histogram contained 10,000 events.
# MCF-7 cells [2] = experiment: Northern analysis of mRNA expression after OSM; conditions: OSM 10 ng/ml
# Procedure: (§1) FIG. 12 is a photographic representation showing effect of OSM on the expression of Transforming Growth Factor α (TGFα), Epidemal Growth Factor Receptor (EGFR), Prolactin Receptor (PRLR), Estrogen Receptor (ER) and LIF mRNA. Cells growing in the presence of 10% (v/v) BCS were treated with OSM (10 ng/ml) and at the indicated time points duplicate 150 cm^2 flasks were harvested and mRNA extracted for Northern analysis. Results for control cells (C) are also shown. The same filter has been probed successively with a ^32P-labelled cDNA corresponding to each mRNA species. mRNA loading was evaluated by reprobing the filter with a fragment complementary to GAPDH. mRNA species of the following sizes were obtained: TGFα, 4.8 kb; PRLR, 10.5 and 8.6 kb; EGFR, 10.5 and 5.8 kb; ER, 6.5 and 3.8 kb and LIF, approx. 4.8 kb.
# Cells havested from duplicate flasks were pooled and poly A+ mRNA extracted by an oligo-dT cellulose procedure (Boehringer Mannheim). Northern analysis was performed using 5 μg RNA per lane. Membranes (Hybond-C extra-Amersham) were hybridised (42° C. overnight) with probes labelled with α-^32P dCTP (bresatec). The membranes were washed at a stringency of 0.2× SSC (30 mM NaCl, 3 mM sodium citrate, pH 7.0)-0.1% (w/v) sodium dodecyl sulfate at 65° C. and exposed to Kodak X-Omat film at −70° C. mRNA loading was estimated by hybridising membranes with a 1.3 kb cDNA complementary to GAPDH.
# as §1, with “Cells” for “FIG. 12 is a photographic representation showing effect of OSM on the expression of Transforming Growth Factor α (TGFα), Epidemal Growth Factor Receptor (EGFR), Prolactin Receptor (PRLR), Estrogen Receptor (ER) and LIF mRNA. Cells”
# BT-549 = experiment: Cell morphology after exposure to OSM; conditions: BT-549 exposed to OSM
# Description: (§2) The action of IL-6, LIF, OSM CNTF and IL-11 was examined on 4 breast cancer cell lines grown in monolayer culture. Striking changes in the morphology of cells were observed. FIG. 15 compares morphology of untreated cells with cells exposed to OSM. […] This was associated with the appearance of decreased intercellular adhesion or cellular contraction. These changes were quite marked by day 14.
# T-47D cells = experiment: Cell morphology after exposure to OSM; conditions: T-47D cultured with OSM
# Description: as §2
# MDA-MB-231 cells = experiment: Cell morphology after exposure to OSM; conditions: MDA-MB-231 exposed to OSM
# Procedure: FIG. 15 is a photographic representation showing cell morphology after exposure to OSM. MCF-7 cells from control cultures (Panel A) and appearance of cells after culture for 14 days in OSM (10 ng/ml) (Panel B). MDA-MB-231 cells from control cultures (Panel C) and appearance of cells after culture for 7 days in OSM (Panel D).
# as §2
# [3] = from 2 hours, maintained for 48 hours
substance,measurement,setting,value
oncostatin M [OSM],effect on S phase fraction (in words),MCF-7 cells [1],marked decrease in the S phase cells; also recorded: decreased
same,effect on percentage of cells in G1 phase (in words),MCF-7 cells [1],concomitant increase in the percentage of cells in G1 phase
same,number of cells in S phase as percentage of control cells,MCF-7 cells [1]; by 24 hour,50%
same,percentage of cells in S phase following treatment,MCF-7 cells [1]; decreases from approximately 15% over a 72 hour time period,~8%
same,abundance of TGFα transcript (in words),MCF-7 cells [2],equivalent to control cells
same,level of LIF transcript (in words),MCF-7 cells [2],upregulates
same,elevation of EGFR mRNA abundance,MCF-7 cells [2]; between 4-12 hours,at least 5 fold
same,level of expression of Estrogen Receptor (ER) mRNA (in words),MCF-7 cells [2]; [3],down regulate
same,level of expression of Prolactin Receptor (PRLR) mRNA (in words),MCF-7 cells [2]; [3],down regulate
same,cell morphology (in words),BT-549,Transformation to a fibroblastic phenotype
same,cell morphology (in words),T-47D cells,more rounded in appearance
same,cell morphology (in words),MDA-MB-231 cells,Transformation to a fibroblastic phenotype
